The source of these data is ChEMBL document CHEMBL1132340, “Novel prodrug approach for tertiary amines: synthesis and preliminary evaluation of N-phosphonooxymethyl prodrugs” (J Med Chem, 1999).

What all share (format): physicochemical
The nature of data set [1]: pKa1 value of the compound. Particulars: read-out: pKa1.
Data set [2] in a line: pKa2 value of the compound. Particulars: read-out: pKa2.
A short description of data set [3]: pKa value of the compound.

Each structure is given as a SMILES string.

For `O=P(O)(O)OC[N+]1(C/C=C/c2ccccc2)CCN(C(c2ccccc2)c2ccccc2)CC1`, the pKa in data set [1] was 1.95; in data set [2] it was 7.47.

In turn, `CCCCc1oc2ccccc2c1C(=O)c1cc(I)c(OCC[N+](CC)(CC)COP(=O)(O)O)c(I)c1` yielded a pKa in data set [3] of 6.56.

Take `C[N+]1(COP(=O)(O)O)CCN(C2=Nc3ccccc3Oc3ccc(Cl)cc32)CC1`: the pKa in data set [2] was 7.5.
